According to patent publication US8128959B2, “Polymeric pharmaceutical agent for treatment of cancer and method for production of the same” (Hiroshi Maeda, priority 2005, dated 2012):

Experiment: Solubility in water
Type: physicochemical
From the text: In order to solubilize it in water, the present inventors have conjugated it with amphiphilic polyethylene glycol (PEG) having an average molecular weight of 100-20,000 (preferably about 5,000) (patent document 2) to create a water-soluble derivative thereof.

solubility in water: insoluble in water
Compound: C=CC1=C(C)c2cc3[n-]c(cc4nc(cc5[n-]c(cc1n2)c(C)c5C=C)C(C)=C4CCC(=O)O)c(CCC(=O)O)c3C.[Zn+2] [ZnPP, zinc-protoporphyrin]
